Experiments:
[1] = Stability test in presence of protein: calcium salt added to milk, heat treatment; format: physicochemical; conditions: 600 ppm calcium added
[2] = Stability test in presence of protein: calcium salt added to soy milk, heat treatment; format: physicochemical; conditions: 600 ppm calcium added

SMILES	protein stability (coagulation) of the fortified milk after heat treatment [1]	protein stability (coagulation / viscosity) of the fortified soy milk after heat treatment [2]
CC(O)C(=O)O.O=C(O)[C@H](O)[C@@H](O)[C@H](O)[C@H](O)CO.O=C([O-])CC(O)(CC(=O)[O-])C(=O)O.[Ca+2] [calcium lactate gluconate citrate]	coaglulated a little to become a quark like substance	somewhat increased viscosity after heat treatment, but was still pourable
CC(O)C(=O)[O-].O=C([O-])[C@H](O)[C@@H](O)[C@H](O)[C@H](O)CO.[Ca+2] [calcium lactate gluconate]	completely coagulated to a firm substance	completely coagulated to a firm substance

From patent US20050153021A1, “Calcium-fortified protein-based beverage containing calcium (lactate) gluconate citrate” (PURAC BIOCHEM BV, priority 2003, published 2005)
